Marks after values point to notes of the source that are not given here.
Assays:
ovariectomized rats = assay: 20-day treatment with EM-652.HCl, body fat, body weight and energy balance (Example 3); format: in vivo, rat; settings: OVX rats, 20 days
Experimental: Eight to ten week-old female Sprague-Dawley rats (Crl:CD(SD)Br) (Charles River Laboratory, St-Constant, Canada) weighing approximately 200-225 g at the start of treatment were used. The animals were acclimatized to the environmental conditions (temperature: 22±3° C.; 10-h light-14-h dark cycles, lights on at 06:00 h) for 1 week before starting the experiment. The animals were housed individually in stainless steel cages of conventional design and were allowed free access to tap water and a high carbohydrate mixed diet composed of (g/100 g): Corn starch, 31.2; Dextrose, 31.2; Casein, 20.0; corn oil, 6.4; dl-Methionine, 0.3; Vitamine mix, 1.0; AIN-76 mineral mix, 4.9 and fiber, 5.0. The experiment was conducted in a Canadian Council on Animal Care approved facility in accordance with the CCAC Guide for Care and Use of Experimental Animals.
On day 1 of the study, the animals of the appropriate groups were bilaterally ovariectomized (OVX) under isoflurane anesthesia. […] The treatment with EM-652.HCl or vehicle alone (0.4% methylcellulose in water) was initiated on day 2 of the study. The compound or vehicle was given once daily by oral gavage in 0.5 ml/rat for 20 days. Body weights and food consumption were recorded every 2 days.
Approximately 24 hours after the last dosing, overnight fasted animals were anesthesized with ketamine-xylazine and blood drawn by cardiac puncture. The blood was collected as well as white and brown adipose tissues.
Body weight, food intake, and body gains in energy, fat, and protein were determined according to Deshaies et al, Am. J. Physiol., 1997; 273, E355-E362 (1997).
Lipoprotein lipase activities were determined according to Deshaies et al, Am. J. Physiol., 1997; 273, E355-E362 (1997).

[1] = tested on: ovariectomized female rats; assay: 20-day treatment with EM-652.HCl, estradiol and DHEA, body fat (Example 6); format: in vivo, Rattus norvegicus; settings: OVX rats
Description: d) Diet: Certified Rodent feed (Lab Diet #5002, pellets) and tap water were provided ad libitum during the acclimation period. During the study period, the rats received an enriched carbonhydrate diet ad libitum. The enriched diet (diet #3) was composed of (g/100 g): Corn starch, 31.2; Dextrose, 31.2; Casein, 20.0; Corn oil, 6.4; dl-Methionine, 0.3; Vitamin mix, 1.0; AIN-76 mineral mix, 4.9; Fiber, 5.0.
80 rats were assigned to 8 groups of 10 rats for the conduct of the study outlined below:
On day 0 of the study, rats from groups 2 to 8 were ovariectomized, by bilateral flank incision, under Isoflurane-induced anesthesia. Rats from group 1 were sham-operated.
The administration of the test articles or vehicle began on Day 1 (the day following the ovariectomy). The tested compounds were given as suspensions in 0.4% methylcellulose by oral gavage (0.5 ml/gavage) for 20 days.
On day 21 of the study (prior to the necropsy), body composition was determined on whole body skeleton of animals under Isoflurane-induced anesthesia using dual energy x-ray absorptiometry (DEXA; QDR 4500A, Hologic) in order to determine the effect of treatments on fat percentage.
Right and left retroperitoneal adipose tissue were collected and weighed.

[2] = tested on: ovariectomized female rats; assay: SERM comparison, energy balance and lipid-lipoprotein metabolism (Example 10); format: in vivo, Rattus norvegicus; settings: OVX rats, 20 days
Experimental: For this purpose, tested compounds were administered by oral gavage for 20 days (0.5 mg/rat for each compound; 0.5 ml/rat) in 0.4% methylcellulose to ovariectomized female rats.
d) Diet: • During acclimation period, rats received a certified rodent diet (Lab Diet #5002, pellet) and tap water ad libitum while during study period, they received a high carbonhydrate diet (diet #3) and tap water ad libitum. The diet was composed of (g/100 g): Corn starch, 31.2; Dextrose, 31.2; Casein, 20.0; corn oil, 6.4; dl-Methionine, 0.3; Vitamine mix, 1.0; AIN-76 mineral mix, 4.9; fiber, 5.0. Rats were fasted (with access to water only) around 07 h00 the morning of their necropsy Randomization:
Test group: Seventy-seven rats were assigned to 8 groups of 9-10 rats for conduct of the study outlined below.
On day 0 of the study, rats from group 2 to 8 were ovariectomized (by bilateral flank incision) under Isoflurane anesthesia. Rats from group 1 were sham-operated.
Rats were weighed on day 0 (surgery) and then, every 2 days during study period as well as on the day of necropsy.
Food consumption was evaluated every 2 days.
In order to determine the effect of treatments on fat percentage, body composition was measured on Day 17 of the study using dual energy x-ray absorptiometry (DEXA; QDR 4500A, Hologic, Waltham, Mass.).
On day 21 of the study, approximately 24 hours after the last dosing and 6 hours of fasting, animals under Ketamine-Xylazine anesthesia were killed by exsanguination at the abdominal aorta.
Blood lipids (Total cholesterol and Triglycerides) and glucose were measured on frozen serum samples using the Boehringer Mannheim Diagnostic Hitachi 911 Analyzer (Boehringer Mannheim Diagnostic Laboratory Systems). Circulating hormones and substrates (Insulin and leptin) were measured on serum sample using the following kits: • Insulin: Linco RIA kit • Leptin: Linco RIA kit Organs and Tissues Collected
The following tissues were collected and weighed: • Muscle (right soleus and right VLM), fat (right retroperitoneal and right inguinal), and brown adipose tissue.
A piece of ˜0.1 g of all tissues (except uterus and vagina) were frozen in liquid nitrogen and kept at −80 C for later determination of lipoprotein-lipase (LPL) activity.

ovariectomized rat = assay: 35-week treatment, total body fat and body weight of ovariectomized rat (Example 1); format: in vivo; settings: OVX rats; for Body Weight at Necropsy: 37 weeks
Experimental: The animals were housed three per cage and were allowed free access to tap water and a pelleted certified rodent feed (Lab Diet 5002, Ralston Purina, St-Louis, Mo.). The experiment was conducted in a Canadian Council on Animal Care approved facility in accordance with the CCAC Guide for Care and Use of Experimental Animals. […] The appropriate compound or vehicle alone was given once daily by oral gavage in 0.5 ml/rat for 37 weeks. Approximately 24 hours after the last dosing, overnight fasted animals were killed by exsanguination at the abdominal aorta under isoflurane anesthesia. After 35 weeks of treatment, individual rats under anesthesia with isoflurane had their whole body skeleton as well as their right femur scanned using dual energy x-ray absorptiometry (DEXA; QDR 4500A, Hologic, Waltham, Mass.) and a Regional High Resolution Scan software. The scan field size used for the whole body was 30.492×17.912 cm, the resolution was 0.1512×0.0640 cm and the scan speed was 2.499 mm/sec. The fat body composition of the whole body was determined. Data are expressed as the means±SEM. Statistical significance was determined according to the multiple-range test of Duncan-Kramer (1956).

[3] = tested on: ovariectomized female rats; assay: 34-week treatment with ethynyl estradiol, EM-652.HCl, Raloxifene and DHEA, body fat (Example 7); format: in vivo, rat; settings: OVX rats, 34 weeks
Experimental: The objective of this study was to assess the effect of a combined treatment with EM-652.HCl, and DHEA on body fat and body weight parameters in ovariectomized rats. For this purpose, ovariectomized rats received daily administration of EM-652.HCl (1 mg/kg), and DHEA (80 mg/kg) alone or in combination, for 34 weeks. EM-652.HCl was administered orally while DHEA was applied topically on dorsal skin. One group of animals was orally treated with 17-ethynylestradiol (0.1 mg/kg) and Raloxifene (EM-1105; 1 mg/kg) for comparison.
Ten to twelve week-old female Sprague-Dawley rats (Crl:CD(SD)Br) weighing approximately 235-250 g at start of treatment were used. Eighty rats were randomly distributed between 7 groups of 11 to 12 animals per group as follows: 1) Intact control; 2) OVX control; 3) OVX+EE2 (0.1 mg/kg); 4) OVX+raloxifene (1 mg/kg); 5) OVX+EM-652.HCl (1 mg/kg); 6) OVX+DHEA (80 mg/kg); 7) OVX+EM-652.HCl+DHEA. On day 1 of the study, the animals of the appropriate groups were bilaterally ovariectomized (OVX) under isoflurane anesthesia. EM-652.HCl, raloxifene and EE2 (Steraloids) were administered once daily by oral gavage as suspension in 0.4% methylcellulose (0.5 ml/rat) for 34 weeks while DHEA was applied topically once daily on dorsal skin as a solution in 50% ethanol-50% propylene glycol (0.5 ml/rat) for the same time period. Approximately 24 hours after the last dosing, overnight fasted animals were killed by exsanguination at the abdominal aorta under isoflurane anesthesia. Left and right retroperitoneal adipose tissues were collected and weighed.
After 34 weeks of treatment, individual rats under anesthesia with isoflurane had their whole body skeleton scanned using dual energy x-ray absorptiometry (DEXA; QDR 4500A, Hologic, Waltham, Mass.) and a Regional High Resolution Scan software. The body composition (including fat percentage) was determined.
Data were expressed as the means±SEM.

[4] = EM-652.HCl 0.5 mg/rat oral once daily, E2 implant
[5] = high carbohydrate diet, 0.5 mg/rat oral gavage
[6] = EE2 0.1, Raloxifene 1, EM-652.HCl 1 mg/kg oral, DHEA 80 mg/kg topical

SMILES | Brown adipose tissue Lipoprotein lipase activity [2, 5] | Brown adipose tissue weight [2, 5] | Cumulative food intake [2, 5] | Serum glucose [2, 5] | Serum insulin [2, 5] | Serum leptin [2, 5] | Serum total cholesterol [2, 5] | Serum triglycerides [2, 5] | Soleus muscle Lipoprotein lipase activity [2, 5] | Soleus muscle weight [2, 5] | Total weight [2, 5] | VastusLateralis muscle weight [2, 5] | White adipose tissue inguinal Lipoprotein lipase activity [2, 5] | White adipose tissue inguinal weight [2, 5] | White adipose tissue retroperitoneal Lipoprotein lipase activity [2, 5] | Body Weight at Necropsy (ovariectomized rat; 0.01 mg/kg orally once daily) | Body Weight at Necropsy (ovariectomized rat; 0.03 mg/kg orally once daily) | Body Weight at Necropsy (ovariectomized rat; 0.1 mg/kg orally once daily) | Body Weight at Necropsy (ovariectomized rat; 0.3 mg/kg orally once daily) | Body Weight at Necropsy (ovariectomized rat; 1 mg/kg orally once daily) | also measured
C[C@]12CC[C@@H]3c4ccc(O)cc4CC[C@H]3[C@@H]1CC[C@@H]2O [E2, estradiol] | 1198 ± 62 μU/g protein | 0.211 ± 0.021 g | 255 ± 9 g | 11.8 ± 1.4 mmol/L | 0.070 ± 0.007 nmol/L | 0.309 ± 0.097 ng/mL | 2.03 ± 0.15 mmol/L | 0.43 ± 0.04 mmol/L | 10.9 ± 2.0 μU/g protein | 0.086 ± 0.003 g | 198 ± 4 g | 0.718 ± 0.026 g | 416 ± 74 μU/g protein | 0.158 ± 0.019 g | 1442 ± 243 μU/g protein | – | – | – | – | – | total energy intake, higher than that of intact animals (ovariectomized rats): 17%; Digestible energy intake (ovariectomized rats; [4]): 5511^a kJ; Enegery gain (ovariectomized rats; [4]): 903 kJ; Apparent energy (expenditure) (ovariectomized rats; calculated from energy intake and energy gain): 4609^a kJ; decrease of body fat ([1]; 20 days): 46%; decrease of retroperitoneal adipose tissue ([1]; 20 days): 78%; Retroperitoneal adipose tissue ([1]; enriched carbohydrate diet, 20 days oral, EM-652.HCl 0.5, E2 0.5, DHEA 100 mg/rat): 0.81 ± 0.17 g; Fat % ([1]; enriched carbohydrate diet, 20 days oral, EM-652.HCl 0.5, E2 0.5, DHEA 100 mg/rat, DEXA day 21): 10.3 ± 0.6%
CC1=C(c2ccc(OC(=O)C(C)(C)C)cc2)[C@H](c2ccc(OCCN3CCCCC3)cc2)Oc2cc(OC(=O)C(C)(C)C)ccc21 [EM-800] | – | – | – | – | – | – | – | – | – | – | – | – | – | – | – | 385 ± 17 g | 364 ± 10 g | 369 ± 17 g | 359 ± 7 g | 368 ± 6 g | decrease of the OVX-induced stimulation of body fat (DEXA) (ovariectomized rat; 0.01 mg/kg orally once daily, 35 weeks, FIG. 1): 78%
Cl.O=C(c1ccc(OCCN2CCCCC2)cc1)c1c(-c2ccc(O)cc2)sc2cc(O)ccc12 [Raloxifene] | 960 ± 116 μU/g protein | 0.307 ± 0.26 g | 307 ± 8 g | 13.8 ± 1.2 mmol/L | 0.077 ± 0.10 nmol/L | 1.39 ± 0.30 ng/mL | 1.19 ± 0.08 mmol/L | 1.20 ± 0.35 mmol/L | 10.2 ± 2.0 μU/g protein | 0.099 ± 0.003 g | 230 ± 3 g | 0.795 ± 0.055 g | 579 ± 46 μU/g protein | 0.245 ± 0.047 g | 1510 ± 52 μU/g protein | 439 ± 13 g | 451 ± 14 g | 389 ± 14 g | 367 ± 9 g | 342 ± 12 g | effect on body fat (DEXA) (ovariectomized rat; 0.01-1 mg/kg orally once daily, 35 weeks, FIG. 1): less active than EM-800; increment of body fat and retroperitoneal adipose tissue by ovariectomy [3]: prevented; Fat % ([3]; DEXA, EE2 0.1, Raloxifene 1, EM-652.HCl 1 mg/kg oral, DHEA 80 mg/kg topical): 22.8 ± 1.6%; Left retroperitoneal adipose tissue [3, 6]: 1.41 ± 0.13 g; Right retroperitoneal adipose tissue [3, 6]: 1.29 ± 0.12 g; Serum insulin (in words) ([2]; 0.5 mg/rat): decreased; White adipose tissue retroperitoneal weight [2, 5]: 1.32 ± 0.24 g
